Measured values as given in patent US6506339B1, “Method of sterilization” (Biomedical Design, Inc., priority 1997, dated 2003).

Assays:
Bacillus Subtilis spores = assay: Sterilization test, Bacillus subtilis spores in cups with or without fixed heart valves, 40° C. (Example 2); assay type: cell-based; design: key: (+) Indicates growth; (−) indicates no growth or complete kill; conditions: 20 mM EDC+1 mM Sulfo-NHS, 20% isopropyl alcohol
Protocol: (§1) Porcine aortic roots are fixed by cross-linking according to the method described in U.S. Pat. No. 5,447,536. After fixation, the valves are stored in 10 mM HEPES, 0.85% NaCl, 20% isopropyl alcohol, pH 7.4, at 4° C. The sterility tests described in the following examples are in most cases conducted in the presence of bioprosthetic heart valve tissue; when such tissue is not present, the solutions are simply filtered through a 0.45 micron filter attached to a funnel (filter funnel). The filters are then rinsed with peptone water to eliminate residual chemicals on the membrane that may prevent growth of the organisms tested. Such membrane filters are then incubated on TSA plates at about 32° to 33° C., e.g. 32.5° C. When an aortic valve is inoculated with microorganisms for test purposes and then submitted to sterilization, the solution is filtered as described above. The aortic valve tissue is then washed for 20 minutes in a reciprocating shaker in the presence of peptone water containing Tween 80 in order to extract all indigenous spores or microorganisms from the tissue. This solution is filtered and then incubated as described above. All microbiological testing is performed in a biological laminar flow hood to prevent contamination. The shrinkage temperature and the proteolytic (collagenase and protease) degradation tests are conducted as previously described in the '536 patent. Resistance to calcification is assessed by subdermal implantation of sterilized leaflets and aortic wall coupons in young rats, as also described in the '536 U.S. patent.
A sterilization process similar to Example 1 is carried out using Bacillus Subtilis spores (˜10^6) inoculated in sterile cups some of which contain cross-linked heart valves that had been fixed by a process according to U.S. Pat. No. 5,447,536. A 10 mM HEPES, 0.85% NaCl, pH 6.5 solution containing 20 mM EDC and 1 mM Sulfo-NHS in the presence of 20% isopropyl alcohol was added for various periods of time (treatment duration). The cups and the heart valves were maintained at 40° C. for the term of the treatment. The solutions were then filtered and the filters incubated for up to 7 days (incubation duration) at about 32-33° C. using Trypticase Soy Agar (TSA) plates. All inoculations were done in duplicate.

[1] = test system: Mycobacterium Chelonae ATCC 35752; assay: Sterilization test, Mycobacterium chelonae in sterile cups at room temperature (Example 1); assay type: cell-based; conditions: EDC plus Sulfo-NHS, 20% isopropyl alcohol
Protocol: as §1, with “All microbiological testing is performed in a biological laminar flow hood to prevent contamination. The shrinkage temperature and the proteolytic (collagenase and protease) degradation tests are conducted as previously described in the '536 patent.” left out, “patent. […]” for “patent.”

CCN=C=NCCCN(C)C.Cl [EDC, 1-ethyl-3(3-dimethylaminopropyl)carbodiimide hydrochloride]
growth on TSA plates (Bacillus Subtilis spores; with valves, treatment 48 hours, incubation 1 Day): −
growth on TSA plates (Bacillus Subtilis spores; with valves, treatment 48 hours, incubation 7 Days): −
growth on TSA plates (Bacillus Subtilis spores; with valves, treatment 72 hours, incubation 1 Day): −
growth on TSA plates (Bacillus Subtilis spores; with valves, treatment 72 hours, incubation 7 Days): −
growth on TSA plates (Bacillus Subtilis spores; without valves, treatment 24 hours, incubation 1 Day): −
growth on TSA plates (Bacillus Subtilis spores; without valves, treatment 24 hours, incubation 7 Days): −
growth on TSA plates (Bacillus Subtilis spores; without valves, treatment 48 hours, incubation 1 Day): −
growth on TSA plates (Bacillus Subtilis spores; without valves, treatment 48 hours, incubation 7 Days): −
growth on TSA plates (Bacillus Subtilis spores; without valves, treatment 72 hours, incubation 1 Day): −
growth on TSA plates (Bacillus Subtilis spores; without valves, treatment 72 hours, incubation 7 Days): −
sterilization treatment time that kills all Mycobacterium chelonae [1]: ≤ 12 h
